The record followed here is patent publication US9067922B2, “Chemical compounds” (Pfizer Limited, priority 2013, dated 2015).

This test deals with URAT-1 transporter (Homo sapiens (Human), UniProt Q96S37). The experiment in a line: URAT-1 inhibitor activity: [14C]-uric acid uptake in CHO-URAT1(L)GFP#8 (CHO#8) cells, scintillation proximity. Format: cell-based. The settings on record: inhibition of [14C]-uric acid (30 nM) uptake into CHO#8 cells; compound 0 to 10 μM; 4 parameter logistic fit. An excerpt: The nucleotide sequence for the long isoform of URAT1 (NM_144585) was C-terminally fused to that of enhanced green fluorescent protein (eGFP) (hereinafter referred to as URAT1(L)GFP). The combined sequence was codon-optimised and custom synthesized. The synthesized sequence was generated in pDONR221 Gateway entry vector (Invitrogen Life Technologies) prior to cloning in pLenti6.3/V5 Gateway destination vector (Invitrogen Life Technologies).
Lentiviral particles were generated according to ViraPower HiPerform expression system procedure (Invitrogen Life Technologies) and used to transduce CHO cells. […] The clonal pools were sorted using fluorescence-activated cell sorting (FACS) on the basis of GFP expression with the gating set at the top 50% of expression into single cells which were subsequently expanded to generate clonal lines. […] This cell line was used for all screening activities and is referred to as CHO-URAT1(L)GFP#8 or CHO#8.
The potency of the compounds of formula (I) as inhibitors of the URAT-1 transporter was determined as follows.
CHO#8 cells were cultured in cell line maintenance flasks in medium consisting of Dulbecco's modified Eagle medium (DMEM) with high glucose and sodium pyruvate (4.5 g of glucose per liter, Invitrogen Life Technologies), supplemented with heat-inactivated foetal bovine serum (FBC, 10% v/v), 1×NEAA (non-essential amino acids) and blasticidin (10 μg/ml). Cultures were grown in 175 cm^2 tissue culture flasks in a humidified incubator at approximately 37° C. in approximately 95% air/5% CO2. Near confluent CHO#8 cell cultures were harvested by trypsinisation, re-suspended in culture medium and the process was repeated once or twice weekly to provide sufficient cells for use.
Assay ready flasks were generated by the same method, except the cells were not cultured in blasticidin.
Assay ready frozen cells were generated by freezing 40,000,000 cells in 1 ml of FBS (without blasticidin) containing 10% DMSO per vial. One vial was sufficient for 5 assay plates. Each vial was thawed rapidly to 37° C., washed and re-suspended in pre-warmed culture medium for seeding onto assay plates.
CHO#8 cells were seeded onto Cytostar™ 96-well plates at a density of […]. The cells were cultured for 1 day at approximately 37° C. in a humidified incubator containing approximately 5% CO2 in air. After approximately 24 hours culture, cells were used for uptake experiments.
On the day of assay, culture medium was removed from the wells and the cells were washed once with 50 μL of chloride-containing buffer (136.7 mM NaCl, 5.36 mM KCl, 0.952 mM CaCl2, 0.441 mM KH2PO4, 0.812 mM MgSO4, 5.6 mM D-glucose, 0.383 mM Na2HPO4.2H2O, 10 mM HEPES, pH 7.4 with NaOH). The cells were pre-incubated with another 50 μL of chloride-containing buffer for one hour at approximately 37° C. in a humidified incubator containing approximately 5% CO2 in air.
Assay compound plates were prepared by diluting the compounds of formula (I) with chloride-free buffer (125 mM Na-gluconate, 4.8 mM K-gluconate, 1.3 mM Ca-gluconate, 1.2 mM KH2PO4, 1.2 mM MgSO4, 5.6 mM D-glucose, 25 mM HEPES, pH 7.4 with NaOH) in 100% DMSO to a final concentration of 1% DMSO. [^14C]-Uric Uric acid working stock was made by addition of radiolabeled compound to a final concentration of 120 nM in chloride-free buffer. In all wells, the final assay concentration of solvent (DMSO) was 0.25%; the final assay concentration of [^14C]-uric acid was 30 nM in chloride-free buffer and the final compound of formula (I) concentrations ranged from 0 to 10 μM.
After pre-incubation, cells were washed with 50 μL of chloride-free buffer and another 50 μL of chloride-free buffer was added.
For orientation: SPA uses beads or plates that emit light when radiolabelled molecules are held near them.

As to “4-{4-chloro-2-[D3-methyloxy]phenoxy}-3-cyano-N-(pyridazin-3-yl)benzenesulfonamide [Example 82]”, the IC50 (in general, the concentration that inhibits the measured activity by half) is 409 nM.

`N#Cc1ccc(Oc2ccc(S(=O)(=O)Nc3ccc(F)cn3)cc2C#N)cc1Cl` [Example 1, 4-(3-chloro-4-cyanophenoxy)-3-cyano-N-(5-fluoropyridin-2-yl)benzenesulfonamide] came in with an IC50 of 13 nM.

In turn, `CCc1cccc(Oc2ccc(S(=O)(=O)Nc3ccc(F)cn3)cc2C#N)c1` [Example 2, 3-cyano-4-(3-ethylphenoxy)-N-(5-fluoropyridin-2-yl)benzenesulfonamide] gave an IC50 of over 10000 nM.

In turn, `N#Cc1cc(S(=O)(=O)Nc2ccc(F)cn2)ccc1Oc1cccc(Cl)c1Cl` [Example 3, 3-cyano-4-(2,3-dichlorophenoxy)-N-(5-fluoropyridin-2-yl)benzenesulfonamide] returned an IC50 of 141 nM.

`N#Cc1cc(S(=O)(=O)Nc2ccc(F)cn2)ccc1Oc1cc(C(F)(F)F)ccc1F` [Example 4, 3-cyano-N-(5-fluoropyridin-2-yl)-4-[2-fluoro-5-(trifluoromethyl)phenoxy]benzenesulfonamide] returned a half-maximal inhibitory concentration (IC50) of over 10000 nM.

As to `Cc1cc(Cl)ccc1Oc1ccc(S(=O)(=O)Nc2ccc(F)cn2)cc1C#N` [Example 5, 4-(4-chloro-2-methylphenoxy)-3-cyano-N-(5-fluoropyridin-2-yl)benzenesulfonamide], the half-inhibitory concentration (IC50) is 148 nM.

`N#Cc1cc(S(=O)(=O)Nc2ccc(F)cn2)ccc1Oc1ccc(C#N)c(C(F)(F)F)c1` [Example 6, 3-cyano-4-[4-cyano-3-(trifluoromethyl)phenoxy]-N-(5-fluoropyridin-2-yl)benzenesulfonamide]: the concentration for half-maximal inhibition (IC50) worked out at 267 nM. Against the preceding compound, the IC50 is about 1.8-fold higher.

Regarding `N#Cc1cc(S(=O)(=O)Nc2ccc(F)cn2)ccc1Oc1ccc(F)cc1F` [Example 7, 3-cyano-4-(2,4-difluorophenoxy)-N-(5-fluoropyridin-2-yl)benzenesulfonamide], the IC50 turned out to be 64 nM.

Compound `COc1cc(F)cc(Oc2ccc(S(=O)(=O)Nc3ccc(F)cn3)cc2C#N)c1` [Example 8, 3-cyano-4-(3-fluoro-5-methoxyphenoxy)-N-(5-fluoropyridin-2-yl)benzenesulfonamide] displayed a concentration for half-maximal inhibition (IC50) of 119 nM.

As for `N#Cc1cc(S(=O)(=O)Nc2ccc(F)cn2)ccc1Oc1ccccc1Cl` [Example 9, 4-(2-chlorophenoxy)-3-cyano-N-(5-fluoropyridin-2-yl)benzenesulfonamide], the IC50 worked out at 208 nM.

`N#Cc1ccc(Oc2ccc(S(=O)(=O)Nc3ccc(F)cn3)cc2C#N)cc1` [Example 10, 3-cyano-4-(4-cyanophenoxy)-N-(5-fluoropyridin-2-yl)benzenesulfonamide]: it took 74 nM to reach half-maximal inhibition (IC50).

On to `N#Cc1cc(S(=O)(=O)Nc2ccc(F)cn2)ccc1Oc1cc(F)cc(F)c1` [Example 11, 3-cyano-4-(3,5-difluorophenoxy)-N-(5-fluoropyridin-2-yl)benzenesulfonamide], for which the IC50 was found to be 125 nM.

Compound `N#Cc1cccc(Oc2ccc(S(=O)(=O)Nc3ccc(F)cn3)cc2C#N)c1` [Example 14, 3-cyano-4-(3-cyanophenoxy)-N-(5-fluoropyridin-2-yl)benzenesulfonamide] registered an IC50 of 206 nM.

For the compound `Cc1cc(Cl)cc(Oc2ccc(S(=O)(=O)Nc3ccc(F)cn3)cc2C#N)c1` [Example 15, 4-(3-chloro-5-methylphenoxy)-3-cyano-N-(5-fluoropyridin-2-yl)benzenesulfonamide], inhibition was half-maximal at 135 nM (IC50).

In turn, `N#Cc1cc(S(=O)(=O)Nc2ccc(F)cn2)ccc1Oc1cccc(F)c1F` [Example 16, 3-cyano-4-(2,3-difluorophenoxy)-N-(5-fluoropyridin-2-yl)benzenesulfonamide] came in with an IC50 of 218 nM.

On to `N#Cc1cc(S(=O)(=O)Nc2ccc(F)cn2)ccc1Oc1cccc(OC(F)(F)F)c1` [Example 18, 3-cyano-N-(5-fluoropyridin-2-yl)-4-[3-(trifluoromethoxy)phenoxy]benzenesulfonamide], for which the IC50 was over 10000 nM.
